Each structure is given as a SMILES string. In brackets after ≈: the same amount, converted by molar mass. Bounds are passed on as bounds.

Some test systems named below: Streptococcus agalactiae; Vibrio vulnificus 204; Vibrio alginolyticus; Enterobacter cloacae; Escherichia coli ML-35p; Klebsiella aerogenes; Candida albicans; Staphylococcus aureus; Pseudomonas aeruginosa; Escherichia coli; Vibrio cholerae non-O1; Vibrio cholerae non-O139.
What all share (test): ≥ marks a high value that may be exact or a test limit, other limits are often not marked, values filed in µg/mL are converted to µM
Assay [1] concerns Micrococcus luteus BCRC 11034.
Assay [2] has as its system Vibrio harveyi BCRC 13812.
Assay [3] deals with Staphylococcus sp. BCRC 10451.
Assay [4] deals with Streptococcus pneumoniae BCRC 10794.
Assay [5] relates to Staphylococcus aureus BCRC 10780.
Assay [6] deals with Haemophilus influenzae ATCC 49247.
Assay [7] concerns Pseudomonas aeruginosa PAO1.
In assay [8] the test system is Staphylococcus aureus ATCC 43300.
For assay [9], the system named is Enterococcus faecalis ATCC 29212.
In assay [10] the test system is Candida albicans ATCC 2002.
Assay [11] concerns Klebsiella pneumoniae ATCC 13883.
Assay [12] deals with Staphylococcus aureus ATCC 25923.
The subject of assay [13] is Haemophilus influenzae ATCC 49766.
In assay [14] the test system is Enterobacter cloacae ATCC 13047.
Assay [15] concerns Escherichia coli ATCC 25922.
The test system of assay [16] is Klebsiella pneumoniae ATCC 700603.
The subject of assay [17] is Pseudomonas aeruginosa ATCC 27853.
In assay [18] the test system is Staphylococcus aureus ATCC 25325.
In assay [19] the test system is Escherichia coli ATCC 35218.
The test system of assay [20] is Listeria monocytogenes ATCC 35152.
Assay [21] relates to Salmonella enterica subsp. enterica serovar Typhi DMST 22842.
Assay [22] relates to Staphylococcus epidermidis ATCC 12228.
In assay [23] the test system is Escherichia coli NCIMB 11843.
The test system of assay [24] is Klebsiella pneumoniae NCIMB 13218.
Assay [25] deals with Cronobacter sakazakii DSM 4485.
Assay [26] deals with Cronobacter muytjensii ATCC 51329.
In assay [27] the test system is Cronobacter sakazakii ATCC BAA-894.
For assay [28], the system named is Staphylococcus aureus RF122.
Assay [29] has as its system Staphylococcus aureus Newman.
The subject of assay [30] is Salmonella enterica subsp. enterica serovar Typhimurium LT2.
The test system of assay [31] is Staphylococcus aureus NCTC 8325-4.
Assay [32] deals with Staphylococcus aureus RN4220.
Assay [33] relates to Pseudomonas fluorescens NCIMB 9046.
Assay [34] has as its system Staphylococcus aureus SA113.
Assay [35] relates to Cronobacter sakazakii DPC 6440.

Take `CC[C@H](C)[C@H](NC(=O)[C@H](Cc1ccccc1)NC(=O)CNC(C)=O)C(=O)N[C@@H](Cc1ccccc1)C(=O)N[C@@H](Cc1cnc[nH]1)C(=O)N[C@H](C(=O)N[C@H](C(=O)N[C@@H](CCCCN)C(=O)NCC(=O)N[C@@H](CC(C)C)C(=O)N[C@@H](Cc1ccccc1)C(=O)N[C@@H](Cc1cnc[nH]1)C(=O)N[C@@H](C)C(=O)NCC(=O)N[C@@H](CCCCN)C(N)=O)[C@@H](C)CC)[C@@H](C)CC` [GFIFHIIKGLFHAGK]: the MIC in assay [1] is 14.8 µM (≈ 25.6 µg/mL); in assay [2] it was 7.42 µM (≈ 12.8 µg/mL); in the assay on Streptococcus agalactiae, 29.7 µM (≈ 51.2 µg/mL); in assay [3], 3.71 µM (≈ 6.4 µg/mL); in assay [4] it was 29.7 µM (≈ 51.2 µg/mL); with Vibrio vulnificus 204 it was at least 59.3 µM. Further, the MIC (in assay [5]; against Vibrio alginolyticus) was 14.8 µM (≈ 25.6 µg/mL) throughout.
As for `CC(C)C[C@H](NC(=O)[C@H](CCCCN)NC(=O)[C@H](CCCCN)NC(=O)[C@H](Cc1ccccc1)NC(=O)[C@H](Cc1ccccc1)NC(=O)[C@@H](N)CCCCN)C(=O)N[C@@H](CCCCN)C(=O)N[C@@H](CCCCN)C(=O)N[C@@H](C)C(=O)N[C@H](C(=O)N[C@@H](CCCCN)C(=O)N[C@@H](CCCCN)C(=O)NCC(=O)N[C@@H](Cc1ccccc1)C(=O)N[C@@H](CCCCN)C(=O)N[C@@H](CCCCN)C(=O)N[C@@H](Cc1ccccc1)C(=O)N[C@@H](C)C(=O)N[C@@H](CCCCN)C(=O)N[C@H](C(=O)O)C(C)C)C(C)C` [KFFKKLKKAVKKGFKKFAKV], the MIC was 1.3 µM (≈ 3.13 µg/mL) in [6]; 5.21 µM (≈ 12.5 µg/mL) in assay [7]; at least 41.7 µM in the assay on Enterobacter cloacae; 1.3 µM (≈ 3.13 µg/mL) in [8]; 10.4 µM (≈ 25 µg/mL) in assay [9]; 2.61 µM (≈ 6.25 µg/mL) with Escherichia coli ML-35p. For the same compound, the MIC in assay [10] is at least 83.4 µM; in assay [11] it was 2.61 µM (≈ 6.25 µg/mL); in the assay on Klebsiella aerogenes, at least 41.7 µM; in assay [12] it was 5.21 µM (≈ 12.5 µg/mL); with Candida albicans, over 83.4 µM; against Staphylococcus aureus, 5.21 µM (≈ 12.5 µg/mL). Further, the MIC with Pseudomonas aeruginosa was 5.21 µM (≈ 12.5 µg/mL); in [13], 2.61 µM (≈ 6.25 µg/mL); in assay [14], at least 41.7 µM; against Escherichia coli it was 5.21 µM (≈ 12.5 µg/mL); in assay [15], 5.21 µM (≈ 12.5 µg/mL); in assay [16] it was 1.3 µM (≈ 3.13 µg/mL).
For the compound `CC(C)[C@H](NC(=O)[C@H](Cc1cnc[nH]1)NC(=O)[C@H](C)NC(=O)[C@H](C)NC(=O)[C@H](CCCCN)NC(=O)[C@@H](N)CCCCN)C(=O)NCC(=O)N[C@@H](CCCCN)C(=O)N[C@@H](Cc1cnc[nH]1)C(=O)N[C@H](C(=O)NCC(=O)N[C@@H](CCCCN)C(=O)N[C@@H](C)C(=O)N[C@@H](C)C(=O)N[C@@H](CCCCN)C(=O)N[C@@H](CCCCN)C(=O)O)C(C)C` [KKAAHVGKHVGKAAKK], the MIC was 52 µM (≈ 86.2 µg/mL) in [17], 47.2 µM (≈ 78.3 µg/mL) in assay [9], at least 56.3 µM in assay [18] and at least 56.1 µM in assay [19].
With `CC(C)C[C@H](NC(=O)[C@H](CCCCN)NC(=O)[C@@H](N)CCCCN)C(=O)NCC(=O)N[C@@H](CCC(=O)O)C(=O)N1CCC[C@H]1C(=O)N[C@@H](CO)C(=O)N[C@@H](CS)C(=O)N[C@@H](CC(N)=O)C(=O)N[C@@H](CCCCN)C(=O)N[C@@H](CC(C)C)C(=O)N[C@@H](CCCCN)C(N)=O` [KKLGEPSCNKLK], the MIC stood at 37.2 µM (≈ 50 µg/mL) in assay [17]; 22.3 µM (≈ 30 µg/mL) in assay [20]; 29.7 µM (≈ 40 µg/mL) in [11]; 18.6 µM (≈ 25 µg/mL) in assay [12]; 22.3 µM (≈ 30 µg/mL) in assay [15].
Consider `CC(C)[C@H](NC(=O)CNC(=O)[C@@H](N)CC(N)=O)C(=O)N[C@@H](CCC(N)=O)C(=O)N1CCC[C@H]1C(=O)N[C@@H](Cc1c[nH]c2ccccc12)C(=O)N[C@@H](Cc1ccc(O)cc1)C(=O)N[C@@H](CCCCN)C(=O)N[C@@H](Cc1c[nH]c2ccccc12)C(=O)N[C@@H](Cc1c[nH]c2ccccc12)C(=O)N[C@@H](CCCCN)C(=O)N[C@@H](Cc1c[nH]c2ccccc12)C(=O)N[C@@H](Cc1c[nH]c2ccccc12)C(=O)N[C@@H](CCCCN)C(=O)N[C@@H](CCCCN)C(=O)N[C@@H](Cc1c[nH]c2ccccc12)C(=O)N[C@@H](Cc1c[nH]c2ccccc12)C(N)=O` [NGVQPWYKWWKWWKKWW], for which the MIC against Vibrio cholerae non-O1 is at least 36.5 µM; in [12], over 36.5 µM; with Vibrio cholerae non-O139, at least 36.5 µM; in [21], at least 36.5 µM; in assay [22], 36.5 µM (≈ 91 µg/mL); in assay [15], over 36.5 µM.
Consider `CC[C@H](C)[C@H](NC(=O)[C@@H](N)C(C)C)C(=O)N[C@@H](CC(N)=O)C(=O)N[C@@H](CCC(=O)O)C(=O)N[C@@H](CC(N)=O)C(=O)N[C@@H](CC(C)C)C(=O)N[C@@H](CC(C)C)C(=O)N[C@@H](CCCN=C(N)N)C(=O)O` [VINENLLR], for which the MIC in [23] is at least 2500 µM; in assay [24], at least 2500 µM; in assay [25], at least 1250 µM; in assay [26] it was at least 1250 µM; in assay [27] it was at least 1250 µM; in [28], at least 1250 µM. Further, the MIC was at least 1250 µM in assay [29]; at least 2500 µM in assay [30]; at least 625 µM in assay [31]; at least 1250 µM in [32]; at least 2500 µM in assay [33]; at least 1250 µM in assay [34]. The compound further returned an MIC in assay [35] of at least 1250 µM.

These data come from DBAASP.
